Laboratory results reported in patent US9113629B2, “4-amino-6-(4-substituted-phenyl)-picolinates and 6-amino-2-(4-substituted-phenyl)-pyrimidine-4-carboxylates and their use as herbicides” (DOW AGROSCIENCES LLC, priority 2013, dated 2015).
Read-outs that look alike come from different tables or passages of the source.

Columns and labels:
[1] = tested on: Key Grass and Sedge Weeds as well as Grass Crops; experiment: Post-emergent Test II herbicidal activity (Table 6); type: in vivo; conditions: post-emergence, 336 h; for pest or weed control at 70 g/ha: 70 g ai/ha; for pest or weed control at 140 g/ha: 140 g ai/ha
Procedure, shortened: (§1)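 Post-emergence foliar spray, 187 L/ha, track sprayer at 43 cm above canopy. Carrier: acetone/water/IPA/DMSO/Atplus 411F/Triton X-155. Plants at 1st–2nd true leaf; subirrigated afterwards; % injury scored visually at 14 d.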

[2] = tested on: Key Broadleaf Weed and Crop Species; experiment: Post-emergent Test II herbicidal activity (Table 5); type: in vivo; conditions: post-emergence, 336 h, 14 days after application; for pest or weed control at 70 g/ha: application rate 70 g ai/ha; for pest or weed control at 140 g/ha: application rate 140 g ai/ha
Procedure, shortened: as §1

[3] = CYPES: yellow nutsedge (Cyperus esculentus), read-out: Visual Growth Reduction (%) 14 Days After Application, CYPES
[4] = DIGSA: crabgrass (Digitaria sanguinalis), read-out: Visual Growth Reduction (%) 14 Days After Application, DIGSA
[5] = ECHCG: barnyardgrass (Echinochloa crus-galli), read-out: Visual Growth Reduction (%) 14 Days After Application, ECHCG
[6] = ORYSA: rice (Oryza sativa), crop, read-out: Visual Growth Reduction (%) 14 Days After Application, ORYSA
[7] = SETFA: giant foxtail (Setaria faberi), read-out: Visual Growth Reduction (%) 14 Days After Application, SETFA
[8] = SORVU: grain sorghum (Sorghum vulgare), read-out: Visual Growth Reduction (%) 14 Days After Application, SORVU
[9] = TRZSS (wheat, Triticum aestivum), crop, read-out: Visual Growth Reduction (%) 14 Days After Application, TRZSS
[10] = ZEAMX: maize, corn (Zea mays), crop, read-out: Visual Growth Reduction (%) 14 Days After Application, ZEAMX
[11] = ABUTH: velvetleaf (Abutilon theophrasti), read-out: Visual Growth Reduction (%) 14 Days After Application, ABUTH
[12] = AMARE: redroot pigweed (Amaranthus retroflexus), read-out: Visual Growth Reduction (%) 14 Days After Application, AMARE
[13] = BRSNN: oilseed-rape, canola (Brassica napus), read-out: Visual Growth Reduction (%) 14 Days After Application, BRSNN
[14] = CHEAL: lambsquarters (Chenopodium album), read-out: Visual Growth Reduction (%) 14 Days After Application, CHEAL
[15] = EPHHL: wild poinsettia (Euphorbia heterophylla), read-out: Visual Growth Reduction (%) 14 Days After Application, EPHHL
[16] = HELAN: sunflower (Helianthus annuus), read-out: Visual Growth Reduction (%) 14 Days After Application, HELAN
[17] = VIOTR: wild pansy (Viola tricolor), read-out: Visual Growth Reduction (%) 14 Days After Application, VIOTR

Structure (SMILES)	pest or weed control at 70 g/ha [1, 3] [%]	pest or weed control at 140 g/ha [1, 3] [%]	pest or weed control at 70 g/ha [1, 4] [%]	pest or weed control at 140 g/ha [1, 4] [%]	pest or weed control at 70 g/ha [1, 5] [%]	pest or weed control at 140 g/ha [1, 5] [%]	pest or weed control at 70 g/ha [1, 6] [%]	pest or weed control at 140 g/ha [1, 6] [%]	pest or weed control at 70 g/ha [1, 7] [%]	pest or weed control at 140 g/ha [1, 7] [%]	pest or weed control at 70 g/ha [1, 8] [%]	pest or weed control at 140 g/ha [1, 8] [%]	pest or weed control at 70 g/ha [1, 9] [%]	pest or weed control at 140 g/ha [1, 9] [%]	pest or weed control at 70 g/ha [1, 10] [%]	pest or weed control at 140 g/ha [1, 10] [%]	pest or weed control at 70 g/ha [2, 11] [%]	pest or weed control at 140 g/ha [2, 11] [%]	pest or weed control at 140 g/ha [2, 12] [%]	pest or weed control at 70 g/ha [2, 13] [%]	also measured
Nc1c(F)c(-c2ccc(Br)cc2)nc(C(=O)O)c1Cl [Compound 20]	95 to 100	95 to 100	95 to 100	95 to 100	95 to 100	95 to 100	60 to 74	60 to 74	95 to 100	95 to 100	95 to 100	95 to 100	75 to 84	75 to 84	95 to 100	95 to 100	95 to 100	95 to 100	95 to 100	95 to 100	pest or weed control at 70 g/ha [2, 12]: 95 to 100%; pest or weed control at 140 g/ha [2, 13]: 95 to 100%; pest or weed control at 70 g/ha [2, 14]: 95 to 100%; pest or weed control at 140 g/ha [2, 14]: 95 to 100%; pest or weed control at 70 g/ha [2, 15]: 95 to 100%; pest or weed control at 140 g/ha [2, 15]: 95 to 100%; pest or weed control at 70 g/ha [2, 16]: 95 to 100%; pest or weed control at 140 g/ha [2, 16]: 95 to 100%; pest or weed control at 70 g/ha [2, 17]: 95 to 100%; pest or weed control at 140 g/ha [2, 17]: 95 to 100%
N#Cc1ccc(-c2nc(C(=O)O)c(Cl)c(N)c2F)cc1 [Compound 39]	60 to 74	75 to 84	30 to 44	45 to 59	85 to 94	85 to 94	0 to 29	0 to 29	0 to 29	30 to 44	30 to 44	60 to 74	30 to 44	45 to 59	60 to 74	60 to 74	30 to 44	60 to 74	0 to 29	0 to 29	pest or weed control at 70 g/ha [2, 12]: 0 to 29%; pest or weed control at 140 g/ha [2, 13]: 30 to 44%; pest or weed control at 70 g/ha [2, 14]: 85 to 94%; pest or weed control at 140 g/ha [2, 14]: 95 to 100%; pest or weed control at 70 g/ha [2, 15]: 85 to 94%; pest or weed control at 140 g/ha [2, 15]: 95 to 100%; pest or weed control at 70 g/ha [2, 16]: 95 to 100%; pest or weed control at 140 g/ha [2, 16]: 95 to 100%; pest or weed control at 70 g/ha [2, 17]: 30 to 44%; pest or weed control at 140 g/ha [2, 17]: 30 to 44%
C=Cc1c(C(=O)O)nc(-c2ccc(Cl)c(F)c2)c(F)c1N [Compound 214]	95 to 100	95 to 100	0 to 29	0 to 29	95 to 100	95 to 100	0 to 29	45 to 59	0 to 29	30 to 44	75 to 84	85 to 94	0 to 29	0 to 29	85 to 94	85 to 94	95 to 100	95 to 100	95 to 100	95 to 100	pest or weed control at 70 g/ha [2, 12]: 95 to 100%; pest or weed control at 140 g/ha [2, 13]: 95 to 100%; pest or weed control at 70 g/ha [2, 14]: 95 to 100%; pest or weed control at 140 g/ha [2, 14]: 95 to 100%; pest or weed control at 70 g/ha [2, 15]: 95 to 100%; pest or weed control at 140 g/ha [2, 15]: 95 to 100%; pest or weed control at 70 g/ha [2, 16]: 95 to 100%; pest or weed control at 140 g/ha [2, 16]: 95 to 100%; pest or weed control at 70 g/ha [2, 17]: 75 to 84%; pest or weed control at 140 g/ha [2, 17]: 75 to 84%
COC(=O)c1nc(-c2ccc(C#N)cc2F)cc(N)c1Cl [Compound 16]	95 to 100	95 to 100	60 to 74	75 to 84	75 to 84	95 to 100	0 to 29	0 to 29	45 to 59	60 to 74	60 to 74	60 to 74	30 to 44	45 to 59	85 to 94	85 to 94	85 to 94	95 to 100	95 to 100	0 to 29	pest or weed control at 140 g/ha [2, 13]: 0 to 29%; pest or weed control at 70 g/ha [2, 14]: 95 to 100%; pest or weed control at 140 g/ha [2, 14]: 95 to 100%; pest or weed control at 70 g/ha [2, 15]: 95 to 100%; pest or weed control at 140 g/ha [2, 15]: 95 to 100%; pest or weed control at 70 g/ha [2, 16]: 95 to 100%; pest or weed control at 140 g/ha [2, 16]: 95 to 100%; pest or weed control at 70 g/ha [2, 17]: 30 to 44%; pest or weed control at 140 g/ha [2, 17]: 30 to 44%
COC(=O)c1nc(-c2ccc(C(F)F)cc2)c(F)c(N)c1Cl [Compound 209]	85 to 94	85 to 94	45 to 59	60 to 74	95 to 100	95 to 100	0 to 29	0 to 29	45 to 59	75 to 84	95 to 100	95 to 100	0 to 29	0 to 29	75 to 84	85 to 94	95 to 100	95 to 100	95 to 100	85 to 94	pest or weed control at 70 g/ha [2, 12]: 95 to 100%; pest or weed control at 140 g/ha [2, 13]: 85 to 94%; pest or weed control at 70 g/ha [2, 14]: 95 to 100%; pest or weed control at 140 g/ha [2, 14]: 95 to 100%; pest or weed control at 70 g/ha [2, 15]: 95 to 100%; pest or weed control at 140 g/ha [2, 15]: 95 to 100%; pest or weed control at 70 g/ha [2, 16]: 95 to 100%; pest or weed control at 140 g/ha [2, 16]: 95 to 100%; pest or weed control at 70 g/ha [2, 17]: 0 to 29%; pest or weed control at 140 g/ha [2, 17]: 0 to 29%
